Laboratory results as given in ChEMBL document CHEMBL6134853, “Design, Synthesis, and Biological Evaluation of Pyrrolo[1,2-a]quinoxalin-4(5H)-one Derivatives as Potent and Orally Available Noncovalent Bruton's Tyrosine Kinase (BTK) Inhibitors” (J Med Chem, 2025).
Values after ≈ are worked out from the molar mass of the structure shown.

Key:
[1] = Aqueous solubility of compound in PBS buffer at pH 7.4 by HPLC analysis; assay type: physicochemical
[2] = molecular target: Tyrosine-protein kinase BTK (Homo sapiens, UniProt Q06187); assay: Inhibition of BTK (unknown origin) by HTRF analysis
Sequence of Tyrosine-protein kinase BTK (Q06187 whole entry): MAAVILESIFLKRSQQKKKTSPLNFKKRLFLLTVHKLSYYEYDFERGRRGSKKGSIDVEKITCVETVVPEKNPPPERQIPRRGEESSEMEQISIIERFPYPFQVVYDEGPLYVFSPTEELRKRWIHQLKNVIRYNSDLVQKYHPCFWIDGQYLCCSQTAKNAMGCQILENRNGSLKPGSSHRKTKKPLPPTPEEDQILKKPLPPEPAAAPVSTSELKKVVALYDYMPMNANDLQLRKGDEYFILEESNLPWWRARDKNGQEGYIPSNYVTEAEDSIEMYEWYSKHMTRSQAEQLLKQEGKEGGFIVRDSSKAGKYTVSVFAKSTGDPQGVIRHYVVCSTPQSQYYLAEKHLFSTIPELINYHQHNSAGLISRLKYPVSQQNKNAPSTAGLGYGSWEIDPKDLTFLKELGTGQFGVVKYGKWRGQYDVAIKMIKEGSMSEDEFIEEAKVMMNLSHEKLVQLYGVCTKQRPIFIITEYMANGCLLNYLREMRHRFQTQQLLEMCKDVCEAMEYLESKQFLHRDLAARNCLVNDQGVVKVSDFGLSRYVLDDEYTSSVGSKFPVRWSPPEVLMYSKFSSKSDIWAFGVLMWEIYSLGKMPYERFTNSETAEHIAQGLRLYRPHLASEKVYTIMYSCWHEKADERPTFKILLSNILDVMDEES

U-937 [3] = assay: Antiproliferative activity against human U-937 cells expressing BTK assessed as inhibition of cell proliferation incubated for 48 hrs by CCK-8 assay; assay type: functional, cell-based; details: U-937, 48 h
Ramos = assay: Antiproliferative activity against human Ramos cells expressing BTK assessed as inhibition of cell proliferation incubated for 48 hrs by CCK-8 assay; assay type: functional, cell-based
U-937 [4] = assay: Antitumor activity against human U-937 cells xenografted in BALB/c mouse assessed as tumor growth inhibition at 50 mg/kg, po administered once a day for 14 days; assay type: functional; details: U-937, 336 h, time 14 day, read-out: TGI
[5] = Tmax in male Sprague-Dawley rat at 10 mg/kg, po measured up to 5 hrs by LC-MS/MS analysis; assay type: ADME, organism-based; details: in vivo
[6] = Cmax in male Sprague-Dawley rat at 10 mg/kg, po measured up to 5 hrs by LC-MS/MS analysis; assay type: ADME, organism-based; details: in vivo
[7] = AUC (0 to 5 hrs) in male Sprague-Dawley rat at 10 mg/kg, po measured up to 5 hrs by LC-MS/MS analysis; assay type: ADME, organism-based; details: in vivo
[8] = MRT (0 to 5 hrs) in male Sprague-Dawley rat at 10 mg/kg, po measured up to 5 hrs by LC-MS/MS analysis; assay type: ADME, organism-based; details: in vivo
[9] = Metabolic stability in rat liver microsome measured for 60 mins by UHPL-UV-HRMS analysis; assay type: ADME; details: microsomes, 1 h
[10] = AUC (0 to t) in male Sprague-Dawley rat at 10 mg/kg, po measured up to 24 hrs by LC-MS/MS analysis; assay type: ADME, organism-based; details: in vivo

SMILES: Cc1c(-c2ccc3c(=O)[nH]c(-c4ccc(C(C)(C)O)cc4)cn23)cccc1-n1c(=O)[nH]c2c(F)cccc2c1=O
- solubility [1]: < 0.5 µg/mL
- IC50 [2]: 0.0648 µM

SMILES: Cc1c(-c2ccc(C(N)=O)n2-c2ccc(C(C)(C)O)cc2)cccc1-n1c(=O)[nH]c2c(F)cccc2c1=O
- solubility [1]: 30.6 µg/mL (≈ 59.7 µM)
- IC50 [2]: > 1 µM

SMILES: Cc1c(-c2ccc3c(=O)[nH]c4cc(C(C)(C)O)ccc4n23)cccc1-n1c(=O)[nH]c2cccc(F)c2c1=O
- IC50 [2]: 0.0121 µM
- IC50 (U-937 [3]): 6.2 µM
- IC50 (Ramos): 17.9 µM

SMILES: Cc1c(-c2ccc3c(=O)[nH]c4cc(C(C)(C)O)ccc4n23)cccc1-n1c(=O)[nH]c2cc(C3CC3)ccc2c1=O
- IC50 [2]: 0.0168 µM
- IC50 (U-937 [3]): 13.8 µM
- IC50 (Ramos): 8.7 µM

SMILES: Cc1c(-c2ccc3c(=O)[nH]c4cc(C(C)(C)O)ccc4n23)cccc1-n1c(=O)[nH]c2c(F)cc(F)cc2c1=O
- IC50 [2]: 0.0072 µM
- IC50 (U-937 [3]): > 40 µM
- IC50 (Ramos): 35.6 µM

SMILES: Cc1c(-c2c(C#N)cc3c(=O)[nH]c4cc(C(C)(C)O)ccc4n23)cccc1-n1c(=O)[nH]c2c(F)cccc2c1=O
- IC50 [2]: > 1 µM

SMILES: CC(C)(O)c1ccc2c(c1)[nH]c(=O)c1ccc(-c3cccc(-n4c(=O)[nH]c5c(F)cccc5c4=O)c3)n12
- IC50 [2]: 0.0737 µM

SMILES: Cc1c(-c2ccc3c(=O)[nH]c4cc(C(C)(C)O)ccc4n23)cccc1N1C(=O)c2cccc(F)c2C1=O
- IC50 [2]: 0.0221 µM
- IC50 (U-937 [3]): > 40 µM
- IC50 (Ramos): > 40 µM

SMILES: CC(C)(O)c1ccc2c(c1)[nH]c(=O)c1ccc(-c3cccc(-n4c(=O)[nH]c5c(F)cccc5c4=O)c3CO)n12
- solubility [1]: 8.4 µg/mL (≈ 16 µM)
- IC50 [2]: 0.015 µM
- IC50 (U-937 [3]): > 40 µM
- IC50 (Ramos): > 40 µM

SMILES: C=CC(=O)N1CCC[C@@H](n2nc(-c3ccc(Oc4ccccc4)cc3)c3c(N)ncnc32)C1 [IBRUTINIB]
- IC50 (U-937 [3]): 3.7 µM
- IC50 (Ramos): 15.1 µM
- inhibition in vivo at 50 mg/kg (U-937 [4]): 41.1%

SMILES: Cc1c(-c2ccc3c(=O)[nH]c4cc(CN5CCOCC5)ccc4n23)cccc1-n1c(=O)[nH]c2c(F)cccc2c1=O
- IC50 [2]: 0.0334 µM

SMILES: Cc1cc2c(=O)[nH]c3cc(C(C)(C)O)ccc3n2c1-c1cccc(-n2c(=O)[nH]c3c(F)cccc3c2=O)c1C
- IC50 [2]: 0.011 µM
- IC50 (U-937 [3]): 6 µM
- IC50 (Ramos): 15 µM
- Tmax [5]: 1 h
- Cmax [6]: 5.16 ng/mL
- AUC(0-t) at 5 h [7]: 8.45 ng·h/mL
- MRT last at 5 h [8]: 1.17 h

SMILES: Cc1c(-c2cc(CO)c3c(=O)[nH]c4cc(C(C)(C)O)ccc4n23)cccc1-n1c(=O)[nH]c2c(F)cccc2c1=O
- solubility [1]: 5.5 µg/mL (≈ 10.2 µM)
- IC50 [2]: 0.327 µM

SMILES: Cc1c(NC(=O)c2cccc(F)c2N)cccc1-c1ccc2c(=O)[nH]c3cc(C(C)(C)O)ccc3n12
- IC50 [2]: 0.0492 µM

SMILES: Cc1c(-c2ccc3c(=O)[nH]c4cc(C(C)(C)O)ccc4n23)cccc1N1CC(=O)Nc2c(F)cccc2C1=O
- solubility [1]: 6.3 µg/mL (≈ 12 µM)
- IC50 [2]: 0.0368 µM

SMILES: CC(C)(O)c1ccc2c(c1)[nH]c(=O)c1ccc(-c3cccc(-n4c(=O)[nH]c5c(F)cccc5c4=O)c3C(F)F)n12
- IC50 [2]: 0.0107 µM
- IC50 (U-937 [3]): 12.5 µM
- IC50 (Ramos): > 40 µM

SMILES: Cc1c(-c2ccc3c(=O)[nH]c4cc(C(C)(C)O)ccc4n23)cccc1N1CNc2c(F)cccc2C1=O
- IC50 [2]: 0.0181 µM
- IC50 (U-937 [3]): 15.9 µM
- IC50 (Ramos): 16.8 µM

SMILES: Cc1c(-c2ccc3c(=O)[nH]c4cc(C(C)(C)O)ccc4n23)cccc1-n1c(=O)[nH]c2c(F)cccc2c1=O
- Stability [9]: Stable
- solubility [1]: 1.1 µg/mL (≈ 2.15 µM)
- IC50 [2]: 0.0083 µM
- IC50 (U-937 [3]): 11.6 µM
- IC50 (Ramos): 19.9 µM
- Tmax [5]: 1 h
- Cmax [6]: 14.2 ng/mL
- AUC(0-t) at 5 h [7]: 39.7 ng·h/mL
- MRT last at 5 h [8]: 1.02 h
- AUC(0-t) at 24 h [10]: 51.9 ng·h/mL
- inhibition in vivo at 50 mg/kg (U-937 [4]): 28.7%

SMILES: [2H]C([2H])([2H])C(O)(c1ccc2c(c1)[nH]c(=O)c1ccc(-c3cccc(-n4c(=O)[nH]c5c(F)cccc5c4=O)c3C)n12)C([2H])([2H])[2H]
- IC50 [2]: 0.0124 µM
- IC50 (U-937 [3]): 13.3 µM
- IC50 (Ramos): 19 µM
- Tmax [5]: 0.5 h
- Cmax [6]: 10.4 ng/mL
- AUC(0-t) at 5 h [7]: 31.1 ng·h/mL
- MRT last at 5 h [8]: 2.05 h

SMILES: Cc1c(-c2c(F)cc(C(N)=O)c3[nH]c4c(c23)CC[C@H](C(C)(C)O)C4)cccc1-n1c(=O)c2cccc(F)c2n(C)c1=O [BMS-986142]
- IC50 [2]: 0.00042 µM
- IC50 (U-937 [3]): 9.3 µM
- IC50 (Ramos): 13.6 µM

SMILES: Cc1c(-c2ccc3n2Cc2ccc(C(C)(C)O)cc2NC3=O)cccc1-n1c(=O)[nH]c2c(F)cccc2c1=O
- solubility [1]: < 0.5 µg/mL
- IC50 [2]: > 1 µM

SMILES: Cc1c(-c2ccc3c(=O)[nH]c4cc(C(F)F)ccc4n23)cccc1-n1c(=O)[nH]c2c(F)cccc2c1=O
- IC50 [2]: 0.0536 µM

SMILES: Cc1c(-c2ccc3c(=O)[nH]c4cc(C(C)(C)O)ccc4n23)cccc1-n1c(=O)oc2c(F)cccc2c1=O
- IC50 [2]: 0.0542 µM

SMILES: Cc1c(-c2c(F)cc3c(=O)[nH]c4cc(C(C)(C)O)ccc4n23)cccc1-n1c(=O)[nH]c2c(F)cccc2c1=O
- IC50 [2]: 0.0058 µM
- IC50 (U-937 [3]): > 40 µM
- IC50 (Ramos): > 40 µM

SMILES: Cc1c(-c2ccc3c(=O)[nH]c4cc(C(F)(F)F)ccc4n23)cccc1-n1c(=O)[nH]c2c(F)cccc2c1=O
- IC50 [2]: 0.0607 µM

SMILES: Cc1c(-c2ccc3c(=O)[nH]c4cc(C(C)(C)O)ccc4n23)cc(F)cc1-n1c(=O)[nH]c2c(F)cccc2c1=O
- IC50 [2]: 0.0173 µM
- IC50 (U-937 [3]): 12 µM
- IC50 (Ramos): 23.7 µM
